What is called GI50 is the concentration at which growth is held to half of that of the control. A word on the inhibition: it is the relative decrease from the control value, in per cent.

“And” between values parts separate entries of the source, which are not always exact repeats. Equal entries are not always repeated. Where two headings read alike, the source gives them in different places.

Assay [1] has as its system HCT116 cells. In words: cells. The following applies: Homo sapiens, HCT-116, 72 h, read-out: GI50 HCT116, 72 hours; mean ± SEM from three experiments run in triplicate.
Assay [2] deals with HCT116 cells. Conditions: read-out: GI50 HCT116; 72 hours; mean ± SEM from three experiments run in triplicate.
Assay [3] addresses T1, CK2α (Homo sapiens, UniProt P68400). In words: biochemical. The following applies: for inhibition at 500 µM: read-out: % inhibition at 500 μM; for inhibition at 1000 µM: read-out: % inhibition at 1 mM; for inhibition at 50 µM: read-out: % inhibition at 50 μM.
Assay [4] concerns the target T1, CK2α.
A further assay concerns A549 cells. In words: cells. The following applies: Homo sapiens, 72 h, read-out: GI50 A459.
The target of assay [5] is T1, CK2α. This is another data set of the same source.
Another assay has as its system Jurkat cells. In words: cells. Conditions: Homo sapiens, 72 h, read-out: GI50 Jurkat.
Assay [6] relates to CK2α-dependent phosphorylation of AKT1 Ser129 and CDC37 Ser13. Conditions: HCT116 cells.

T1 sequence (P68400 whole entry): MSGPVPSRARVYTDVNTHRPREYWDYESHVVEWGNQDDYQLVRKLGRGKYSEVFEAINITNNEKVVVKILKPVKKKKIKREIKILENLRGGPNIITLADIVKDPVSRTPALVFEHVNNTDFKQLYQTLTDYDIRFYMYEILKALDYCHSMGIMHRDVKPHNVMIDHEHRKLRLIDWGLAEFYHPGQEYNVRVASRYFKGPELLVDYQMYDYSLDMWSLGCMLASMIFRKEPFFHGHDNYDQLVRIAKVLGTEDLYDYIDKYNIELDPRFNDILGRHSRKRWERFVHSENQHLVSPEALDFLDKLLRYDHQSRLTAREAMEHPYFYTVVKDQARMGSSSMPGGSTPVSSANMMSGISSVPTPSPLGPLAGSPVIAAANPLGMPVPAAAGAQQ

With `O=C(O)c1ccc2c(c1)nc(Nc1cccc(Cl)c1)c1ccncc12` [CX4945, reference compound], the GI50 is 4.8 µM in the assay with HCT116 cells [1] and 4 µM with HCT116 cells [2].
As for `Brc1ccc2[nH]ccc2c1` [Compound 3], at CK2α [3], the inhibition at 500 µM was determined as 22 ± 5% and the inhibition at 1000 µM came out at 50 ± 13%.
Consider `Clc1cc2[nH]ccc2cc1Br` [Compound 6], for which, at CK2α [4], the Ligand efficiency was 0.44 and 0.44 kJ mol^−1. Also, the inhibition at 500 µM on CK2α [3] turned out to be 93 ± 5%.
For `Brc1ccc2[nH]ncc2c1` [Compound 7], the Ligand efficiency on CK2α [4] was 0.47 and 0.47 kJ mol^−1. Besides, on CK2α [3], the inhibition at 500 µM was 66 ± 5% and the inhibition at 1000 µM is 84 ± 6%.
As for `N#CCc1c[nH]c2ccc(Br)cc12` [Compound 8], the GI50 with A549 cells was found to be 29 ± 7 µM. Further, the Ligand efficiency on CK2α [4] was 0.44 and 0.44 kcal mol-1 and 0.44 kJ mol^−1. At CK2α [3], the inhibition at 50 µM turned out to be 32 ± 7%, the inhibition at 500 µM was 87 ± 11% and the inhibition at 1000 µM is 105 ± 9%. For the same compound, on CK2α [5] (500 μM compound + 7 μM CK2α), the “binding to CK2α by CPMG signal” value is listed as “binds to CK2α”. Moreover, the “binding to CK2α in the presence of CX4945” value at CK2α [5] (500 μM compound + 50 μM CX4945 + 7 μM CK2α) is recorded as “significantly reduced”. Moreover, the “binding to CK2α in the presence of αD-binder” value on CK2α [5] (500 μM compound + 500 μM αD-binder + 7 μM CK2α) is listed as “largely inhibited”. In the assay on Jurkat cells, the GI50 stood at 55 ± 2 µM. Further, the GI50 in the assay on HCT116 cells [1] is 88 ± 7 µM. The “inhibition of CK2α-dependent phosphorylation of Ser129 in AKT1” value in assay [6] (twice the GI50 (170 μM), 24, 48 or 72 hours) is on record as “good inhibition”. The “inhibition of phosphorylation of Ser13 in CDC37” value in assay [6] (twice the GI50 (170 μM), 48 h) is on record as “significantly inhibited”.
As for `N#CCc1c[nH]c2cc(Cl)c(Br)cc12` [Compound 9], the inhibition at 50 µM on CK2α [3] was 103 ± 6%.
The same measure, in the same setting: then `N#CCc1n[nH]c2ccc(Br)cc12` [Compound 10], with 97 ± 3%.
In the case of `N#CCc1c[nH]c2ccc(C(F)(F)F)cc12` [Compound 14], the inhibition at 50 µM at CK2α [3] turned out to be 39 ± 10%.
Still for that read-out and setting: the figure for `N#CCc1c[nH]c2cc(Br)c(Br)cc12` [Compound 15] is 65 ± 10%.
Turning to `N#CCc1n[nH]c2cc(Br)c(Br)cc12` [Compound 16], the Ligand efficiency at CK2α [4] was found to be 0.53 kcal/mol. Further, the inhibition at 50 µM on CK2α [3] is 95 ± 4%.
`N#CCc1n[nH]c2cc(Cl)c(Br)cc12` [Compound 17] came in with a Ligand efficiency on CK2α [4] of 0.52 kcal/mol. In addition, at CK2α [3], the inhibition at 50 µM worked out at 98 ± 3%.
With `Brc1ccc2[nH]cc(Cc3nccs3)c2c1` [Compound 18], the inhibition at 50 µM at CK2α [3] was determined as 13 ± 4%.
On to `Brc1ccc2[nH]cc(Cc3ccc[nH]3)c2c1` [Compound 20], for which the inhibition at 50 µM at CK2α [3] was determined as 8 ± 3%.
As for `CCCc1cn(Cc2c[nH]c3ccc(Br)cc23)nn1` [Compound 21], on CK2α [3], the inhibition at 50 µM was 11 ± 6%.
Still for that read-out and setting: the figure for `CNCc1c[nH]c2ccc(Br)cc12` [Compound 22] is 21 ± 5%.
As to `N=C(Cc1c[nH]c2ccc(Br)cc12)NO` [Compound 23], the inhibition at 50 µM at CK2α [3] was 13 ± 5%.

For the origin of these results see publication PMC9667777, “A fragment-based approach leading to the discovery of inhibitors of CK2α with a novel mechanism of action” (RSC Medicinal Chemistry, 2022).
